# Tested on: B16F10 cells
# Experiment: H2O2 treatment, MTT cell viability assay
# Type: cell-based, murine
# Details: compared with the other cell lines, FIG. 7B
# Description: Cell cultures. The experiment investigated 10 cancer cell lines, which include many representative cell lines in plasma medicine. Human pancreas ductal adenocarcinoma cell line (PANC-1) was purchased from American Type Culture Collection (ATCC). Other cell lines were donated by several labs at the George Washington University. These cells were all purchased from ATCC by the different labs. Human pancreatic adenocarcinoma cell line (PA-TU-8988T), human glioblastoma cell line (U87MG), as well as human lung carcinoma cell line (A549) were provided by Dr. Murad's lab. Human breast cancer cell lines (MDA-MB-231, MCF-7) were provided by Dr. Zhang's lab. Human ovarian carcinoma cell line (SK-OV-3), human ovarian carcinoma cell line (IGROV-1), human colorectal carcinoma cell line (HCT116), as well as human bone osteosarcoma cell line (U-2 OS) were provided by Dr. Zhu's lab. Murine melanoma cell line (B16F10) was provided by Dr. Sotomayor's lab. […]
# Cell viability assay. […] The absorbance at 570 nm was measured by a H1 microplate reader (Hybrid Technology). The measured absorbance was processed to be a relative cell viability by the division between the data of the experimental group and the control group.
structure (smiles),measurement,value
OO [H2O2],resistance to H2O2 treatment,strongest resistance to H2O2 treatment
